Data as given in PMC9863297, “Intermolecular Interactions of Edaravone in Aqueous Solutions of Ethaline and Glyceline Inferred from Experiments and Quantum Chemistry Computations” (Molecules, 2023).
Where two headings read alike, the source gives them in different places.

Assay: Edaravone solubility, slurry/shake-flask method with spectrophotometric determination at 243 nm
Type: physicochemical
Conditions: thermodynamic from solid, read-out: cE solubility concentration
Procedure: The first step in obtaining a calibration curve was the preparation of a stock solution of edaravone with a concentration of 2.3 mg/mL. This initial solution was successfully diluted in 10 mL volumetric flasks with methanol and the obtained solutions with decreasing concentrations were measured spectrophotometrically. […] Three separate curves were obtained, and the final curve resulted from averaging. […] The limits of detection (LOD) and quantification (LOQ) were calculated as 5.899∙10^−4 mg/mL and 1.770∙10^−3 mg/mL, respectively.
All of the studied deep eutectic solvents included choline chloride, while the second constituent was either glycerol or ethylene glycol. In order to prepare a DES formulation, choline chloride was mixed with the second compound in different molar ratios in sealed test tubes and placed in a water bath at 363.15 K until the formation of a uniform solution. The obtained DES were either used in their neat form or water was added to them in different proportions in order to form binary systems.
During the next stage, edaravone was added in excess amounts to the test tubes containing both neat DES and binary mixtures, which enabled us to obtain its saturated solutions. Samples prepared in such a manner were placed in an Orbital Shaker Incubator ES-20/60 from Biosan (Riga, Latvia) and incubated for 24 h at different temperatures, namely 298.15 K, 303.15 K, 308.15 K and 313.15 K. The temperature adjustment accuracy was 0.1 K and its variability in a 24 h cycle was ±0.5 K. Apart from heating, all of the samples were mixed at 60 rev/min. The increased viscosity and density of DES systems required the samples to be centrifuged at 1000 rev/min for 5 min with the use of EBA 20 centrifuge from Hettich (Tuttlingen, Germany) enabling the undissolved precipitate to remain on the bottom of the test tubes. Next, the samples were filtered using a syringe equipped with a PTFE syringe filer with 0.22 µm pore size. In order to avoid precipitation, the test tubes, syringes and filters were initially heated at a temperature equal to the one of the handled samples. Finally, small amounts of the obtained filtrate were transferred to test tubes filled with methanol and the diluted samples were measured spectrophotometrically. Additionally, for the determination of the mole fractions of edaravone, the density of the samples was measured by weighing a fixed volume of the solution in 10 mL volumetric flasks.
For determining the solubility of edaravone in the studied systems, the samples prepared, as described above, were measured spectrophotometrically using an A360 spectrophotometer from AOE Instruments (Shanghai, China). The spectra were recorded in the 190 nm to 500 nm wavelength range and 1 nm resolution. Methanol was used for the initial calibration of the spectrophotometer and for the dilution of the measured samples, which was conducted in order for the absorbance values to remain below 2.5. The absorbance values at 243 nm were taken into account and based on the calibration curve prepared earlier, the concentration of edaravone in the samples was determined, followed by its mole fractions. The values were averaged from three separate measurements.

Q: For `CC1=NN(c2ccccc2)C(=O)C1` [edaravone, 5-methyl-2-phenyl-4H-pyrazol-3-one], which solubility at 24 h (25 °C, aqueous with cosolvent or surfactant or cyclodextrin, water + ETA (ChCl:EG 1:2), x*ETA = 0.2, 298.15 K) is on record?
A: 221 mg/mL

Q: What about the solubility at 24 h (25 °C, aqueous with cosolvent or surfactant or cyclodextrin, water + ETA (ChCl:EG 1:2), x*ETA = 0.4, 298.15 K) of the same molecule?
A: 407 mg/mL

Q: What about the solubility at 24 h (25 °C, aqueous with cosolvent or surfactant or cyclodextrin, water + ETA (ChCl:EG 1:2), x*ETA = 0.5, 298.15 K) of the same molecule?
A: 457 mg/mL

Q: What about the solubility at 24 h (25 °C, aqueous with cosolvent or surfactant or cyclodextrin, water + GLE (ChCl:GL 1:2), x*GLE = 0.2, 298.15 K) of the same molecule?
A: 115 mg/mL

Q: And the solubility at 24 h (25 °C, aqueous with cosolvent or surfactant or cyclodextrin, water + GLE (ChCl:GL 1:2), x*GLE = 0.4, 298.15 K)?
A: 233 mg/mL

Q: What about the solubility at 24 h (25 °C, aqueous with cosolvent or surfactant or cyclodextrin, water + GLE (ChCl:GL 1:2), x*GLE = 0.5, 298.15 K) of the same molecule?
A: 299 mg/mL

Q: What about the solubility at 24 h (25 °C, aqueous with cosolvent or surfactant or cyclodextrin, water + GLE (ChCl:GL 1:2), x*GLE = 0.8, 298.15 K) of the same molecule?
A: 266 mg/mL

Q: What about the solubility at 24 h (25 °C, organic solvent or mixture, neat DES choline chloride + glycerol (GLE) 1:2 molar ratio (x*GLE = 1.0), 298.15 K) of the same molecule?
A: 191 mg/mL

Q: What about the solubility at 24 h (25 °C, organic solvent or mixture, neat DES choline chloride + glycerol (GLE) 1:4 molar ratio, 298.15 K) of the same molecule?
A: 177 mg/mL

Q: What about the solubility at 24 h (30 °C, aqueous with cosolvent or surfactant or cyclodextrin, water + ETA (ChCl:EG 1:2), x*ETA = 0.2, 303.15 K) of the same molecule?
A: 270 mg/mL

Q: And the solubility at 24 h (30 °C, aqueous with cosolvent or surfactant or cyclodextrin, water + ETA (ChCl:EG 1:2), x*ETA = 0.4, 303.15 K)?
A: 505 mg/mL

Q: What about the solubility at 24 h (30 °C, aqueous with cosolvent or surfactant or cyclodextrin, water + ETA (ChCl:EG 1:2), x*ETA = 0.5, 303.15 K) of the same molecule?
A: 554 mg/mL

Q: And the solubility at 24 h (30 °C, aqueous with cosolvent or surfactant or cyclodextrin, water + GLE (ChCl:GL 1:2), x*GLE = 0.2, 303.15 K)?
A: 148 mg/mL

Q: What about the solubility at 24 h (30 °C, aqueous with cosolvent or surfactant or cyclodextrin, water + GLE (ChCl:GL 1:2), x*GLE = 0.4, 303.15 K) of the same molecule?
A: 328 mg/mL

Q: What about the solubility at 24 h (30 °C, aqueous with cosolvent or surfactant or cyclodextrin, water + GLE (ChCl:GL 1:2), x*GLE = 0.5, 303.15 K) of the same molecule?
A: 415 mg/mL

Q: And the solubility at 24 h (30 °C, aqueous with cosolvent or surfactant or cyclodextrin, water + GLE (ChCl:GL 1:2), x*GLE = 0.6, 303.15 K)?
A: 464 mg/mL

Q: And the solubility at 24 h (30 °C, aqueous with cosolvent or surfactant or cyclodextrin, water + GLE (ChCl:GL 1:2), x*GLE = 0.8, 303.15 K)?
A: 364 mg/mL

Q: What about the solubility at 24 h (30 °C, organic solvent or mixture, neat DES choline chloride + glycerol (GLE) 1:1 molar ratio, 303.15 K) of the same molecule?
A: 203 mg/mL

Q: And the solubility at 24 h (30 °C, organic solvent or mixture, neat DES choline chloride + glycerol (GLE) 1:2 molar ratio (x*GLE = 1.0), 303.15 K)?
A: 282 mg/mL

Q: And the solubility at 24 h (30 °C, organic solvent or mixture, neat DES choline chloride + glycerol (GLE) 1:4 molar ratio, 303.15 K)?
A: 246 mg/mL

Q: And the solubility at 24 h (35 °C, aqueous with cosolvent or surfactant or cyclodextrin, water + ETA (ChCl:EG 1:2), x*ETA = 0.2, 308.15 K)?
A: 331 mg/mL

Q: What about the solubility at 24 h (35 °C, aqueous with cosolvent or surfactant or cyclodextrin, water + ETA (ChCl:EG 1:2), x*ETA = 0.4, 308.15 K) of the same molecule?
A: 603 mg/mL

Q: And the solubility at 24 h (35 °C, aqueous with cosolvent or surfactant or cyclodextrin, water + GLE (ChCl:GL 1:2), x*GLE = 0.2, 308.15 K)?
A: 201 mg/mL

Q: And the solubility at 24 h (35 °C, aqueous with cosolvent or surfactant or cyclodextrin, water + GLE (ChCl:GL 1:2), x*GLE = 0.4, 308.15 K)?
A: 402 mg/mL

Q: And the solubility at 24 h (35 °C, aqueous with cosolvent or surfactant or cyclodextrin, water + GLE (ChCl:GL 1:2), x*GLE = 0.5, 308.15 K)?
A: 518 mg/mL

Q: What about the solubility at 24 h (35 °C, aqueous with cosolvent or surfactant or cyclodextrin, water + GLE (ChCl:GL 1:2), x*GLE = 0.6, 308.15 K) of the same molecule?
A: 567 mg/mL

Q: And the solubility at 24 h (35 °C, aqueous with cosolvent or surfactant or cyclodextrin, water + GLE (ChCl:GL 1:2), x*GLE = 0.8, 308.15 K)?
A: 472 mg/mL

Q: What about the solubility at 24 h (35 °C, organic solvent or mixture, neat DES choline chloride + glycerol (GLE) 1:1 molar ratio, 308.15 K) of the same molecule?
A: 274 mg/mL

Q: And the solubility at 24 h (35 °C, organic solvent or mixture, neat DES choline chloride + glycerol (GLE) 1:2 molar ratio (x*GLE = 1.0), 308.15 K)?
A: 369 mg/mL

Q: And the solubility at 24 h (35 °C, organic solvent or mixture, neat DES choline chloride + glycerol (GLE) 1:4 molar ratio, 308.15 K)?
A: 336 mg/mL

Q: What about the solubility at 24 h (40 °C, aqueous with cosolvent or surfactant or cyclodextrin, water + ETA (ChCl:EG 1:2), x*ETA = 0.2, 313.15 K) of the same molecule?
A: 382 mg/mL

Q: What about the solubility at 24 h (40 °C, aqueous with cosolvent or surfactant or cyclodextrin, water + ETA (ChCl:EG 1:2), x*ETA = 0.4, 313.15 K) of the same molecule?
A: 684 mg/mL

Q: What about the solubility at 24 h (40 °C, aqueous with cosolvent or surfactant or cyclodextrin, water + GLE (ChCl:GL 1:2), x*GLE = 0.2, 313.15 K) of the same molecule?
A: 252 mg/mL

Q: What about the solubility at 24 h (40 °C, aqueous with cosolvent or surfactant or cyclodextrin, water + GLE (ChCl:GL 1:2), x*GLE = 0.4, 313.15 K) of the same molecule?
A: 514 mg/mL

Q: What about the solubility at 24 h (40 °C, aqueous with cosolvent or surfactant or cyclodextrin, water + GLE (ChCl:GL 1:2), x*GLE = 0.5, 313.15 K) of the same molecule?
A: 647 mg/mL
